EC50 data for one compound are collected here from BindingDB's records for doi:10.1016/j.ejmech.2020.112858 (University of Pisa, 2020).

For orientation: EC50 means the concentration giving half of the maximal effect.

A short description of assay [1]: Non-competitive antagonist activity at human CB2R expressed in CHO cell membranes assessed as N-cycloheptyl-1,2-dihydro-1-(4-fluorobenzyl)-6-methyl-2-oxo-5-phenyl-pyridine-3-carboxamide EC50 at 100 nM preincubated with compound for 30 mins followed by GTPgammaS addition and measured after 90 mins by [35S]GTPgammaS assay (Rvb = 19.4 nM).
Assay [2] can be described thus: Non-competitive antagonist activity at human CB2R expressed in CHO cell membranes assessed as N-cycloheptyl-1,2-dihydro-1-(4-fluorobenzyl)-6-methyl-2-oxo-5-phenyl-pyridine-3-carboxamide EC50 at 300 nM preincubated with compound for 30 mins followed by GTPgammaS addition and measured after 90 mins by [35S]GTPgammaS assay (Rvb = 19.4 nM).
Assay [3] in a line: Non-competitive antagonist activity at human CB2R expressed in CHO cell membranes assessed as N-cycloheptyl-1,2-dihydro-1-(4-fluorobenzyl)-6-methyl-2-oxo-5-phenyl-pyridine-3-carboxamide EC50 at 1000 nM preincubated with compound for 30 mins followed by GTPgammaS addition and measured after 90 mins by [35S]GTPgammaS assay (Rvb = 19.4 nM).
Assay [4] in a line: Competitive antagonist activity at human CB2R expressed in CHO cell membranes assessed as rightward shift of N-cycloheptyl-1,2-dihydro-5-bromo-1-(4-fluoro benzyl)-6-methyl-2-oxo-pyridine-3-carboxamide-induced GTPgammaS binding by measuring N-cycloheptyl-1,2-dihydro-5-bromo-1-(4-fluoro benzyl)-6-methyl-2-oxo-pyridine-3-carboxamide EC50 at 100. On the technique in general: GTPγS resists hydrolysis and so accumulates on activated G proteins.

The nature of assay [5]: Competitive antagonist activity at human CB2R expressed in CHO cell membranes assessed as rightward shift of N-cycloheptyl-1,2-dihydro-5-bromo-1-(4-fluoro benzyl)-6-methyl-2-oxo-pyridine-3-carboxamide-induced GTPgammaS binding by measuring N-cycloheptyl-1,2-dihydro-5-bromo-1-(4-fluoro benzyl)-6-methyl-2-oxo-pyridine-3-carboxamide EC50 at 300.
Assay [6] is described as follows: Competitive antagonist activity at human CB2R expressed in CHO cell membranes assessed as rightward shift of N-cycloheptyl-1,2-dihydro-5-bromo-1-(4-fluoro benzyl)-6-methyl-2-oxo-pyridine-3-carboxamide-induced GTPgammaS binding by measuring N-cycloheptyl-1,2-dihydro-5-bromo-1-(4-fluoro benzyl)-6-methyl-2-oxo-pyridine-3-carboxamide EC50 at 1000.

On to `COc1ccc(-c2cc(C(=O)NC3CCCCCC3)c(=O)n(Cc3ccc(F)cc3)c2C)cc1`, for which the EC50 in assay [1] was determined as 102 nM; in assay [2] it was 62 nM; in assay [3], 103 nM; in assay [4] it was 81 nM; in assay [5], 192 nM; in assay [6], 711 nM.
